Counter-ions that a name gives are not always drawn.

This data set is described as follows: RP, Waters ACQUITY UPLC HSS T3, 150 × 2.1 mm, 1.8 µm, 45 °C, 0.6 mL/min, estimated dead time 0.55 min; A: water + 0.1% formic acid, pH 3; B: acetonitrile + 0.1% formic acid, pH 3; gradient (min/%B) 0/1 0.1/1 10/55 10.15/65 10.30/75 10.45/85 10.60/95 10.70/100 11/100 11.55/100 11.65/1 11.70/1 11.80/1 11.90/1 12/1 12.10/1 12.15/1 12.65/1. As to conditions: stereoisomer not certain.
For the compound `O=C(O)CC(CC(=O)O)C(=O)O` [1,2,3-Propanetricarboxylic acid], the LC retention time is 1.38 min.

As to `Cn1c(=O)c2c([nH]c(=O)n2C)n(C)c1=O` [1,3,7-Trimethyluric acid], the LC retention time was 2.95 min.

With `Cn1c(=O)[nH]c2[nH]c(=O)n(C)c2c1=O` [1,7-Dimethyluric acid], the LC retention time is 2.57 min.

Turning to `O=C(O)c1cc(O)ccc1O` [2,5-Dihydroxybenzoic acid], the LC retention time is 3.16 min.

Turning to `O=C(O)c1c(O)cccc1O` [2,6-Dihydroxybenzoic acid], the LC retention time was 3.76 min.

For `CCC(C)(O)C(=O)O` (configuration not stated) [2-Hydroxy-2-methylbutyric acid], the LC retention time is 2.45 min.

As for `CC(C)C(O)C(=O)O` (configuration not stated) [2-Hydroxy-3-methylbutyric acid], the LC retention time is 2.74 min.

In the case of `CC(C)(O)C(=O)O` [2-Hydroxyisobutyric acid], the LC retention time is 1.62 min.

Regarding `O=C(O)Cc1ccccc1O` [2-Hydroxyphenylacetic acid], the LC retention time is 4.11 min.

Turning to `CC(CCC(=O)O)C(=O)O` (configuration not stated) [2-Methylglutaric acid], the LC retention time was 2.8 min.

For `O=C(O)c1cc(O)cc(O)c1` [3,5-Dihydroxybenzoic acid], the LC retention time was 2.35 min.

Consider `Cn1c(=O)[nH]c(=O)c2c1[nH]c(=O)n2C` [3,7-Dimethyluric acid], for which the LC retention time was 1.94 min.

As to `CCCc1oc(CCC(=O)O)c(C(=O)O)c1C` [3-Carboxy-4-methyl-5-propyl-2-furanpropionic acid (CMPF)], the LC retention time was 8.1 min.

Consider `CC(O)(CC(=O)O)CC(=O)O` [3-Hydroxy-3-methylglutaric acid], for which the LC retention time is 1.55 min.

As to `O=C(O)CNC(=O)c1cccc(O)c1` [3-Hydroxyhippuric acid], the LC retention time was 2.73 min.

Regarding `CC(CO)C(=O)O` (configuration not stated) [3-Hydroxyisobutyric acid], the LC retention time was 1.59 min.

Consider `CC(C)(O)CC(=O)O` [3-Hydroxyisovaleric acid], for which the LC retention time was 2.1 min.

Turning to `O=C(O)Cc1cccc(O)c1` [3-Hydroxyphenylacetic acid], the LC retention time was 3.74 min.

As for `CCC(C)C(=O)C(=O)O` (configuration not stated) [3-Methyl-2-oxovaleric acid], the LC retention time is 3.22 min.

On to `CC(CC(=O)O)CC(=O)O` [3-Methylglutaric acid], for which the LC retention time was 2.66 min.

`CCc1ccc(OS(=O)(=O)O)cc1` [4-Ethylphenylsulfate]: the LC retention time is 5.73 min.

In the case of `O=C(O)c1ccc(O)cc1` [4-Hydroxybenzoic acid], the LC retention time is 3.16 min.

For the compound `O=C(O)C=Cc1ccc(O)cc1` [4-Hydroxycinnamic acid], the LC retention time is 4.35 min.

Consider `O=C(O)CNC(=O)c1ccc(O)cc1` [4-Hydroxyhippuric acid], for which the LC retention time was 2.45 min.

For `O=C(O)Cc1ccc(O)cc1` [4-Hydroxyphenylacetic acid], the LC retention time is 3.41 min.

For `O=C(O)C(O)Cc1ccc(O)cc1` (configuration not stated) [4-Hydroxyphenyllactic acid], the LC retention time is 2.81 min.

Take `O=S(=O)(O)Oc1ccc2[nH]ccc2c1` [5-Hydroxyindole sulfate]: the LC retention time is 2.81 min.

For the compound `CC(CCC(=O)O)C1CCC2C3C(=O)CC4CC(O)CCC4(C)C3CC(O)C12C` (configuration not stated) [7-Ketodeoxycholic acid], the LC retention time is 8.65 min.

Consider `Cn1c[n+](C2OC(CO)C(O)C2O)c2nc(N)[nH]c(=O)c21` (configuration not stated) [7-Methylguanosine], for which the LC retention time is 2.05 min.

Turning to `CC(CC(=O)O)C1CCC2C3C(O)CC4CC(O)CCC4(C)C3CC(O)C12C` (configuration not stated) [23-Norcholic acid], the LC retention time was 8.58 min.

For the compound `CC1=CC(=O)NS(=O)(=O)O1` [Acesulfame], the LC retention time was 1.9 min.

For `CC(=O)Nc1ccc(OC2OC(C(=O)O)C(O)C(O)C2O)cc1` (configuration not stated) [Acetaminophen glucuronide], the LC retention time was 1.92 min.

Consider `CC(=O)Nc1ccc(OS(=O)(=O)O)cc1` [Acetaminophen sulfate], for which the LC retention time was 2.26 min.

Consider `Nc1ncnc2c1ncn2C1OC2COP(=O)(O)OC2C1O` (configuration not stated) [Adenosine 3',5'-cyclic monophosphate], for which the LC retention time was 1.62 min.

With `O=C(O)CCCCC(=O)O` [Adipic acid], the LC retention time is 2.59 min.

For the compound `O=C(O)CCCCCCCC(=O)O` [Azelaic acid], the LC retention time was 5.48 min.

For the compound `CC(CCC(=O)O)C1CCC2C3C(O)CC4CC(O)CCC4(C)C3CC(O)C12C` (configuration not stated) [Cholic acid], the LC retention time is 9.75 min.

Regarding `O=C(O)C=C(CC(=O)O)C(=O)O` [Cis-aconitic acid], the LC retention time is 1.3 min.

On to `CC(=CC(=O)O)C(=O)O` [Citraconic acid], for which the LC retention time is 1.73 min.

For `O=C(O)CC(O)(CC(=O)O)C(=O)O` [Citric acid], the LC retention time is 1.12 min.

For `CC12CCC3C(CC=C4CC(OS(=O)(=O)O)CCC43C)C1CCC2=O` (configuration not stated) [Dehydroepiandrosterone sulfate], the LC retention time was 7.92 min.

As for `CC12CCC3C(CC=C4CC(OC5OC(C(=O)O)C(O)C(O)C5O)CCC43C)C1CCC2=O` (configuration not stated) [Dehydroisoandrosterone 3-glucuronide], the LC retention time was 7.43 min.

Take `CC(CCC(=O)O)C1CCC2C3CCC4CC(O)CCC4(C)C3CC(O)C12C` (configuration not stated) [Deoxycholic acid]: the LC retention time is 10.9 min.

For `NCCc1ccc(O)c(OS(=O)(=O)O)c1` [Dopamine 3-O-sulfate], the LC retention time was 1.56 min.

As to `NCCc1ccc(OS(=O)(=O)O)c(O)c1` [Dopamine 4-O-sulfate], the LC retention time was 1.49 min.

`O=C(O)c1cc(O)c(O)c(O)c1` [Gallic acid]: the LC retention time was 1.72 min.

Take `O=C(O)CCCC(=O)O` [Glutaric acid]: the LC retention time was 1.86 min.

As to `CC(CCC(=O)NCC(=O)O)C1CCC2C3C(O)CC4CC(O)CCC4(C)C3CC(O)C12C` (configuration not stated) [Glycocholic acid], the LC retention time is 8.4 min.

`CC(CCC(=O)NCC(=O)O)C1CCC2C3CCC4CC(OS(=O)(=O)O)CCC4(C)C3CC(O)C12C` (configuration not stated) [Glycodeoxycholic acid-3-sulfate]: the LC retention time was 8.94 min.

Take `CC(CCC(=O)NCC(=O)O)C1CCC2C3CCC4CC(O)CCC4(C)C3CC(O)C12C` (configuration not stated) [Glycodeoxycholic acid]: the LC retention time is 10.1 min.

As to `CC(CCC(=O)NCC(=O)O)C1CCC2C3CCC4CC(OS(=O)(=O)O)CCC4(C)C3CCC12C` (configuration not stated) [Glycolithocholic acid-3-sulfate], the LC retention time was 10.2 min.

Take `CC(CCC(=O)NCC(=O)O)C1CCC2C3C(O)CC4CC(O)CCC4(C)C3CCC12C` (configuration not stated) [Glycoursodeoxycholic acid]: the LC retention time is 8.4 min.

In the case of `Nc1nc2c(ncn2C2OC(CO)C(O)C2O)c(=O)[nH]1` (configuration not stated) [Guanosine], the LC retention time is 1.43 min.

For the compound `COc1cc(CC(=O)O)ccc1O` [Homovanillic acid], the LC retention time was 3.8 min.

For the compound `O=c1[nH]cnc2nc[nH]c12` [Hypoxanthine], the LC retention time is 1.2 min.

For the compound `CC(C)Cc1ccc(C(C)C(=O)OC2OC(C(=O)O)C(O)C(O)C2O)cc1` (configuration not stated) [Ibuprofen acyl glucuronide], the LC retention time was 8.62 min.

Consider `O=C(O)C(O)Cc1c[nH]c2ccccc12` (configuration not stated) [Indolelactic acid], for which the LC retention time was 4.86 min.

The record behind these values is the RepoRT retention time repository.
